Measured values from ChEMBL document CHEMBL6074624, “FDA-approved small molecule kinase inhibitors for cancer treatment (2001-2015): Medical indication, structural optimization, and binding mode Part I” (Bioorg Med Chem, 2024).
Values after ≈ are worked out from the molar mass of the structure shown.

Key:
K562 = assay: Antiproliferative activity against human K562 cells assessed as reduction in cell growth; assay type: functional, cell-based
[1] = molecular target: Hepatocyte growth factor receptor (Homo sapiens, UniProt P08581); assay: Inhibition of c-Met (unknown origin)
ACHN = assay: Antiproliferative activity against human ACHN cells assessed as reduction in cell viability measured after 48 hrs by SRB assay; assay type: functional, cell-based
HT-29 [2] = assay: Antiproliferative activity against human HT-29 cells assessed as reduction in cell viability after 72 hrs by MTS assay; assay type: functional, cell-based; settings: HT-29, 72 h
[3] = molecular target: T1, Vascular endothelial growth factor receptor 2 (Homo sapiens, UniProt P35968); assay: Inhibition of VEGFR-2 (unknown origin) expressed in NIH3T3 cells assessed as reduction in VEGFA induced protein phosphorylation; assay type: cell-based
T1 sequence (P35968 whole entry): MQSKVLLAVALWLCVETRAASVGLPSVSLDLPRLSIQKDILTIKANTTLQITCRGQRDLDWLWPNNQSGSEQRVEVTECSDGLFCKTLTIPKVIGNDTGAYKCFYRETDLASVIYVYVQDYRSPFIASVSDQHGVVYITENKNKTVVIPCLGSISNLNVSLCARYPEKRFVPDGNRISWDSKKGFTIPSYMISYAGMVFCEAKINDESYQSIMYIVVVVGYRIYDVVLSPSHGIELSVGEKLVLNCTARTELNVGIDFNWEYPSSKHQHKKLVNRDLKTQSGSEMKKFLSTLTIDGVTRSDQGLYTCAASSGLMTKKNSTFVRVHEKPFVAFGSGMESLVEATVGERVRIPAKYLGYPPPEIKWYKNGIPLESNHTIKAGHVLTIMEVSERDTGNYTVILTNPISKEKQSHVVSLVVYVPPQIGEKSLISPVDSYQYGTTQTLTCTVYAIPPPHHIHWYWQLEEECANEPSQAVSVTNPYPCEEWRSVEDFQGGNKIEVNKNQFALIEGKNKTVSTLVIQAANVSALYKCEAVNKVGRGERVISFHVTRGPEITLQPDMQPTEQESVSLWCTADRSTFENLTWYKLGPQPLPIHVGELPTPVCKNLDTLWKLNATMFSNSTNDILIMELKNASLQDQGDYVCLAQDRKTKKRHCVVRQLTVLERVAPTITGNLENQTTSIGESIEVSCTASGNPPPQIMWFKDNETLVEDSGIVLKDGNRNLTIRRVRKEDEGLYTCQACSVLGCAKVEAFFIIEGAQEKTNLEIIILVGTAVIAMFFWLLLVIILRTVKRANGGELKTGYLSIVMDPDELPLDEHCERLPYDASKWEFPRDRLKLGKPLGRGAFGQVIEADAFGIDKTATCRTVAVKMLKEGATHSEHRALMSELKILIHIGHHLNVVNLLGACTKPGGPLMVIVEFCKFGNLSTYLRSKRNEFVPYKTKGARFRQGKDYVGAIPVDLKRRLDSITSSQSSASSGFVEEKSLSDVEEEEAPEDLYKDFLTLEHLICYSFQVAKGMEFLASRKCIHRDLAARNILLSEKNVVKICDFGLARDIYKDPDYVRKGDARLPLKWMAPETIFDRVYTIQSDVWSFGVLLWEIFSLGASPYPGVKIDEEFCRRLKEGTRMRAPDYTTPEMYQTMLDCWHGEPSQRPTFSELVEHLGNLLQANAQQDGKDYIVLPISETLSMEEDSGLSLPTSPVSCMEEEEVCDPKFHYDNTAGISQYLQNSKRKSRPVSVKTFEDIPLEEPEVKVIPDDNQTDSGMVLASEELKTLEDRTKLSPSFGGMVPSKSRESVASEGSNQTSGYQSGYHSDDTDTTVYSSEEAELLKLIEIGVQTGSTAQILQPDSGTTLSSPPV

[4] = Inhibition of PDGFR (unknown origin) in NIH3T3 cells; assay type: cell-based, Homo sapiens
[5] = molecular target: T2, Tyrosine-protein kinase Lck (Homo sapiens, UniProt P06239); assay: Inhibition of human LCK
T2 sequence (P06239 whole entry): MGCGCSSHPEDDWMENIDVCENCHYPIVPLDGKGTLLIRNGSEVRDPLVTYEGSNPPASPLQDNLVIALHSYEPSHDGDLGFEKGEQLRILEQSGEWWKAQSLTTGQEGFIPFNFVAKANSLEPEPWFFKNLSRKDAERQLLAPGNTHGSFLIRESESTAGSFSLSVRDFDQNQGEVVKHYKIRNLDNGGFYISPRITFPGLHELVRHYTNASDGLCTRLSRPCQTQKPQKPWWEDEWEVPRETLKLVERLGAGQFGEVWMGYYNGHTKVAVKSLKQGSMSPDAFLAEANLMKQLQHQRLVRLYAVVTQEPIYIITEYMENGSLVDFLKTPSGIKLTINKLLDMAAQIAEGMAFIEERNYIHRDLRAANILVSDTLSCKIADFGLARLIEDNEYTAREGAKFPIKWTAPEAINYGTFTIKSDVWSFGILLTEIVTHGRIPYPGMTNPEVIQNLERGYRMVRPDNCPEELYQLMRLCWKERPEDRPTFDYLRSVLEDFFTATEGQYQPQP

[6] = molecular target: Mast/stem cell growth factor receptor Kit (Homo sapiens, UniProt P10721); assay: Inhibition of c-Kit (unknown origin)
[7] = molecular target: T3, Proto-oncogene tyrosine-protein kinase Src (Homo sapiens, UniProt P12931); assay: Inhibition of SRC (unknown origin)
T3 sequence (P12931 2-536 limits assumed): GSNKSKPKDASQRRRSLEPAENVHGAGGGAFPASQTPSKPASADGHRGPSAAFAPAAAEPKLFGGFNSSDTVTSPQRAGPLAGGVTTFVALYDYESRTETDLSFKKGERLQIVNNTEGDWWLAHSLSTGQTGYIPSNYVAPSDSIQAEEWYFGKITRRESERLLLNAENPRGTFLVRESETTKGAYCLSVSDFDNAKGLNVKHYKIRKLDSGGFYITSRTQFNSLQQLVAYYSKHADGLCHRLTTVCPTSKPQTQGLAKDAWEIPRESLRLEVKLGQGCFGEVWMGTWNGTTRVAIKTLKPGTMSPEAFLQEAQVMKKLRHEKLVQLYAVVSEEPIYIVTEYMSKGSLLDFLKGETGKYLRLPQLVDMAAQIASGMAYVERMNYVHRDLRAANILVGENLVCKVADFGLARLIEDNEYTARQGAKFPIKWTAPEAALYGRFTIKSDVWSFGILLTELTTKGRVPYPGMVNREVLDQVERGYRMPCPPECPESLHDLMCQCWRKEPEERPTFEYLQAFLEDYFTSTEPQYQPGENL

[8] = molecular target: Tyrosine-protein kinase Yes (Homo sapiens, UniProt P07947); assay: Inhibition of YES1 (unknown origin)
PC-3 = assay: Antiproliferative activity against human PC-3 cells; assay type: functional, cell-based
MDA-MB-231 [9] = assay: Antiproliferative activity against human MDA-MB-231 cells; assay type: functional, cell-based
[10] = molecular target: T2, Tyrosine-protein kinase Lck
HT-29 [11] = assay: Antitumor activity against human HT-29 cells xenografted in athymic nude mouse assessed as tumor growth inhibition at 25 mg/kg, ip administered once daily for 21 days relative to control; assay type: functional; settings: HT-29, 504 h, time 21 day, read-out: TGI
HT-29 [12] = assay: Antitumor activity against human HT-29 cells xenografted in athymic nude mouse assessed as tumor growth inhibition at 50 mg/kg, po administered once daily for 21 days relative to control; assay type: functional; settings: HT-29, 504 h, time 21 day, read-out: TGI
Calu-6 [13] = assay: Antitumor activity against human Calu-6 cells xenografted in athymic nude mouse assessed as tumor growth inhibition at 100 mg/kg, po administered once daily for 21 days relative to control; assay type: functional; design: scale not given: the % may be the effect or the level left; settings: time 21 day
[14] = Solubility in PBS at pH 7.4 incubated for 24 hrs by HPLC analysis; assay type: physicochemical
[15] = Half life in rat at 5 mg/kg, po; assay type: ADME, organism-based; settings: in vivo
[16] = Oral bioavailability in rat at 5 mg/kg measured for 24 hrs by LC-MS/MS analysis; assay type: ADME, organism-based; settings: in vivo
Calu-6 [17] = assay: Antitumor activity against human Calu-6 cells xenografted in athymic nude mouse assessed as tumor growth inhibition at 50 mg/kg, po administered once daily for 21 days relative to control; assay type: functional; settings: Calu-6, 504 h, time 21 day, read-out: TGI
Calu-6 [18] = assay: Antitumor activity against human Calu-6 cells xenografted in athymic nude mouse assessed as tumor growth inhibition at 25 mg/kg, po administered once daily for 21 days relative to control; assay type: functional; settings: Calu-6, 504 h, time 21 day, read-out: TGI
Calu-6 [19] = assay: Antitumor activity against human Calu-6 cells xenografted in athymic nude mouse assessed as tumor growth inhibition at 12.5 mg/kg, po administered once daily for 21 days relative to control; assay type: functional; settings: Calu-6, 504 h, time 21 day, read-out: TGI
[20] = Cytotoxicity against HUVEC cells assessed as reduction in cell viability after 72 hrs by CellTiter-Glo assay; assay type: toxicity, cell-based; settings: human
[21] = AUC (0 to infinity) in mouse at 50 mg/kg, po; assay type: ADME, organism-based; settings: in vivo
[22] = molecular target: T1, Vascular endothelial growth factor receptor 2; assay: Inhibition of VEGFR2 (unknown origin) phosphorylation in HUVEC cells; assay type: cell-based
[23] = Half life in Sprague-Dawley rat at 5 mg/kg, iv by LC-MS analysis; assay type: ADME, organism-based; settings: in vivo
[24] = Oral bioavailability in Sprague-Dawley rat at 5 mg/kg; assay type: ADME, organism-based; settings: in vivo
[25] = Half life in dog at 5 mg/kg, iv; assay type: ADME, organism-based, Canis lupus familiaris; settings: in vivo
[26] = Oral bioavailability in dog at 5 mg/kg; assay type: ADME, organism-based, Canis lupus familiaris; settings: in vivo
[27] = molecular target: T3, Proto-oncogene tyrosine-protein kinase Src
[28] = molecular target: Epidermal growth factor receptor (Homo sapiens, UniProt P00533, L858R/T790M); assay: Inhibition of EGFR L858R/T790M (unknown origin)
Chain of Epidermal growth factor receptor (Homo sapiens, UniProt P00533, L858R/T790M) (P00533 25-1210 T790M/L858R limits assumed): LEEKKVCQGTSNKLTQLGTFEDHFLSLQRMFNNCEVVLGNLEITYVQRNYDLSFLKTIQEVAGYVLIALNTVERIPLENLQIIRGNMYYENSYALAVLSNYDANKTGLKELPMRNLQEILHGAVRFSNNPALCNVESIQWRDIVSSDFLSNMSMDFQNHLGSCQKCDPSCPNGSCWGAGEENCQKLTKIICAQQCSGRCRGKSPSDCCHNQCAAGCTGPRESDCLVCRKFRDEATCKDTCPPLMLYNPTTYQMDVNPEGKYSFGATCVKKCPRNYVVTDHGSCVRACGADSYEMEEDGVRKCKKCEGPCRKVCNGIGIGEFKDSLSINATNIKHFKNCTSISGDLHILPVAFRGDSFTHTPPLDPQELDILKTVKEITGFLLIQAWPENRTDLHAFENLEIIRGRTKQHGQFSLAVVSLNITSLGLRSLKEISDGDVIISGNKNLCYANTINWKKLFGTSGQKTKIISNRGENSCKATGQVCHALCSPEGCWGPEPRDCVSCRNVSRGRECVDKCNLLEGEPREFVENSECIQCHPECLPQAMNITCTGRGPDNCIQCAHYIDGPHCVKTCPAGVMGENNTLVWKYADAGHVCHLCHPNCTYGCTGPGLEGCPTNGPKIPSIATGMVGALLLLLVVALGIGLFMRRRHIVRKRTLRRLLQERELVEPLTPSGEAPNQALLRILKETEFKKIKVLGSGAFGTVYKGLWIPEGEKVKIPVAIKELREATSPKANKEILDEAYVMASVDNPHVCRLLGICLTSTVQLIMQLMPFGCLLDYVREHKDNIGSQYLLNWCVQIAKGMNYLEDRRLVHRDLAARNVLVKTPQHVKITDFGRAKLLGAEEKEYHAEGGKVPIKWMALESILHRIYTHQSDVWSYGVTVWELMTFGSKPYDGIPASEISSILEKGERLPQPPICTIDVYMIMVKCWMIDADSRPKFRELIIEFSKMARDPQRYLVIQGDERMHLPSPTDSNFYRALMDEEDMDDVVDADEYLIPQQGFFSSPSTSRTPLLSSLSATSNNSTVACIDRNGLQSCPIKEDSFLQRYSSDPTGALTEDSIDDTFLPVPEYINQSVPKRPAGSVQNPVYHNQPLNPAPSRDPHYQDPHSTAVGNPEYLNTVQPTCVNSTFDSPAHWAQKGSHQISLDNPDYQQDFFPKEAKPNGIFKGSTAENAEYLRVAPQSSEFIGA

NCI-H1975 [29] = assay: Antiproliferative activity against human NCI-H1975 cells assessed as reduction in cell viability after 24 hrs by MTT assay; assay type: functional, cell-based; settings: NCI-H1975, 24 h
PC-9 [30] = assay: Antiproliferative activity against human PC-9 cells assessed as reduction in cell growth incubated for 72 hrs by MTT assay; assay type: functional, cell-based; settings: PC-9, 72 h
[31] = Anticancer activity against human NCI-H1975 cells harboring EGFR L858R/T790M mutant assessed as reduction in cell viability measured after 72 hrs by MTT assay; assay type: functional, cell-based; settings: NCI-H1975, 72 h
PC-9 [32] = assay: Antiproliferative activity against human PC-9 cells harboring EGFR L858R mutant assessed as reduction in cell viability measured after 72 hrs by SRB assay; assay type: functional, cell-based; settings: PC-9, 72 h
NCI-H1975 [33] = assay: Growth inhibition of human NCI-H1975 cells; assay type: functional
PC-9 [34] = assay: Growth inhibition of human PC-9 cells; assay type: functional
Calu-3 = assay: Growth inhibition of human Calu-3 cells; assay type: functional
[35] = Aqueous solubility of compound at pH 7.4 by LC-MS/MS analysis; assay type: physicochemical; settings: buffer
[36] = molecular target: Voltage-gated inwardly rectifying potassium channel KCNH2 (Homo sapiens, UniProt Q12809); assay: Inhibition of hERG; assay type: toxicity
Chain of Voltage-gated inwardly rectifying potassium channel KCNH2 (Q12809 whole entry): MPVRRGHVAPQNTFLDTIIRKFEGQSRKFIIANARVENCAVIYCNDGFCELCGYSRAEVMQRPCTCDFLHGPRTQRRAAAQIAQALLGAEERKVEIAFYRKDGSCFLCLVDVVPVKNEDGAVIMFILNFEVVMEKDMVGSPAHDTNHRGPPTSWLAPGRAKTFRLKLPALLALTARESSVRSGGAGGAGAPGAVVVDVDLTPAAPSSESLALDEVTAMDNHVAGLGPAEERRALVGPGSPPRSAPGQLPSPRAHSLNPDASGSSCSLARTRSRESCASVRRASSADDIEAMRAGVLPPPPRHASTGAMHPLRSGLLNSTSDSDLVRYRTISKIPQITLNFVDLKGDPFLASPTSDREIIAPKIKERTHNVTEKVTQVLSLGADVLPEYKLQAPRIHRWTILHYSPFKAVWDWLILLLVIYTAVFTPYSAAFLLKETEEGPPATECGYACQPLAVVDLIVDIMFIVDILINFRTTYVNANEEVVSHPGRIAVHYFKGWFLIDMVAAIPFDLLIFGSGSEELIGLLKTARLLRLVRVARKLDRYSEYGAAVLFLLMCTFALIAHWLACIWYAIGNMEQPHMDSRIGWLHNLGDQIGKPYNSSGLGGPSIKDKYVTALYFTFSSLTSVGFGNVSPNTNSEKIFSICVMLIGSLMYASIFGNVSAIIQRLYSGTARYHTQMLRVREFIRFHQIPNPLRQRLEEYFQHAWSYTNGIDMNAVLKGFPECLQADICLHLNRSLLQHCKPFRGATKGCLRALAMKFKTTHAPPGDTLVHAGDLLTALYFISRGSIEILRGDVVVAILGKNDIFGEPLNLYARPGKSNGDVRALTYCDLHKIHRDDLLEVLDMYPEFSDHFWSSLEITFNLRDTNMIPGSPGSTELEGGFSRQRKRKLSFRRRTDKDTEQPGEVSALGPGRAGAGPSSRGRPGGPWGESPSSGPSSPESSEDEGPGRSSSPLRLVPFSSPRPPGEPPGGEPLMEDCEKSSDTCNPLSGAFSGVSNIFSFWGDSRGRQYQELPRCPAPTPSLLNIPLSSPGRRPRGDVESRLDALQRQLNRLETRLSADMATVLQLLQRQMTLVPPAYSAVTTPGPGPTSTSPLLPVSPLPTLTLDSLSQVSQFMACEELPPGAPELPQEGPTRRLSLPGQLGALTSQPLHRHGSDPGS

COLO 205 = assay: Antitumor activity against human COLO 205 cells xenografted in nu/nu CD-1 mouse assessed as reduction in tumor growth at 100 mg/kg, po administered once daily for 14 days relative to control; assay type: functional; settings: COLO 205, 336 h, time 14 day, read-out: TGI
MDA-MB-231 [37] = assay: Antitumor activity against human MDA-MB-231 cells xenografted in nu/nu CD-1 mouse assessed as reduction in tumor growth at 3 mg/kg, po administered once daily for 14 days relative to control; assay type: functional; settings: MDA-MB-231, 336 h, time 14 day, read-out: TGI
786-0 = assay: Antitumor activity against human 786-0 cells xenografted in nu/nu CD-1 mouse assessed as reduction in tumor growth at 10 mg/kg, po administered once daily for 21 days relative to control; assay type: functional; settings: 786-0, 504 h, time 21 day, read-out: TGI
[38] = molecular target: Epidermal growth factor receptor (Homo sapiens, UniProt P00533)
KB = assay: cells; settings: Homo sapiens, 72 h
[39] = Inhibition of Bcr-Abl T315Ialpha mutant (unknown origin); design: species or system Homo sapiens

In the case of `COc1cc2nccc(Nc3ccc(NC(=S)NC(=O)Cc4ccccc4)cc3F)c2cc1OC`, the IC50 (K562) is reported as 20 nM and the IC50 [1] is reported as 121 nM.

Compound `Cn1c(=O)cc(Nc2ccc(Br)cc2)c2c(=O)n(C3CC3)c(=O)n(-c3ccccc3)c21` has an IC50 (ACHN) of 1270 nM and an IC50 (HT-29 [2]) of 100 nM.

With `Cc1c[nH]c(/C=C2\C(=O)Nc3ccccc32)c1CCC(=O)O` the IC50 [3] was 400 nM and the IC50 [4] was 60.9 µM.

`Cc1cc(Nc2ncc(C(=O)Nc3c(C)cccc3Cl)s2)nc(C)n1` gave an IC50 [5] of 1000 nM, an IC50 [6] of 5 nM and an IC50 [7] of 0.5 nM. The IC50 [8] was 0.5 nM, the IC50 (PC-3) was 9.4 nM and the IC50 (MDA-MB-231 [9]) was 12 nM. It also gave an IC50 [10] of 0.4 nM.

With `COc1cc(Nc2c(C#N)cnc3cc(OCCCN4CCN(C)CC4)c(OC)cc23)c(Cl)cc1Cl` [BOSUTINIB] the inhibition in vivo at 25 mg/kg (HT-29 [11]) was 44% and the inhibition in vivo at 50 mg/kg (HT-29 [12]) was 35%.

Compound `COc1cc2/c(=N/c3ccc(Br)cc3F)nc[nH]c2cc1OCC1CCN(C)CC1` [VANDETANIB] has an Activity (Calu-6 [13]) of 79%, a solubility at 24 h [14] of 330 µM (≈ 157 µg/mL) and a half-life [15] of 900 min. The bioavailability [16] was over 50%, the inhibition in vivo at 50 mg/kg (Calu-6 [17]) was 67% and the inhibition in vivo at 25 mg/kg (Calu-6 [18]) was 51%. It also gave an inhibition in vivo at 12.5 mg/kg (Calu-6 [19]) of 36%.

Compound `COc1cc(-c2ccc3[nH]nc(/C=C/c4ccc(OC)c(OC)c4)c3c2)ccc1O` has an IC50 at 72 h [20] of 18 nM and an AUC(0-inf) [21] of 300 ng·h/mL.

`COc1cc2c(Nc3ccc(Br)cc3F)ncnc2cc1OCCn1ccnn1` [ZD-4190 FREE BASE] showed an IC50 [22] of 50 nM, an Activity (Calu-6 [13]) of 75% and a half-life [23] of 78 min. It also gave a bioavailability [24] of over 80%, a half-life [25] of 66 min and a bioavailability [26] of under 5%.

`Cc1ccc(NC(=O)c2cc(C(C)(C)C)on2)cc1/C=C/n1cnc2c(NC3CC3)ncnc21` gave an IC50 [27] of 15.5 µM.

Compound `C=CC(=O)Nc1ccc(OC)c(Nc2ncc(Cl)c(-c3c[nH]c4ccccc34)n2)c1` has an IC50 [28] of 60 nM, an IC50 (NCI-H1975 [29]) of 20 nM and an IC50 (PC-9 [30]) of 150 nM.

`Cn1c(=O)cc(Nc2ccc(Cl)cc2)c2c(=O)n(-c3ccccc3)c(=O)n(-c3ccccc3)c21` gave an IC50 (ACHN) of 4800 nM and an IC50 (HT-29 [2]) of 990 nM.

Compound `COc1cc(N2CCN(C(C)=O)CC2)ccc1Nc1ncc(Cl)c(-c2c[nH]c3ccccc23)n1` has an IC50 [28] of 100 nM and an IC50 (NCI-H1975 [29]) of 770 nM.

In the case of `C=CC(=O)Nc1cc(Nc2ncc(Cl)c(-c3cnn4ccccc34)n2)c(OC)cc1C1CC[C@@H](N(C)C)C1` (some centres not stated), the IC50 [31] is reported as 2 nM, the IC50 (PC-9 [32]) is reported as 16 nM and the GI50 (NCI-H1975 [33]) is reported as 7 nM. For the same compound, the GI50 (PC-9 [34]) was 10 nM, the GI50 (Calu-3) was 380 nM and the solubility [35] was 28 µM (≈ 14.9 µg/mL). It also gave an IC50 [36] of 5.6 µM.

With `CNC(=O)c1cc(Oc2ccc(NC(=O)Nc3ccc(Cl)c(C(F)(F)F)c3)c(F)c2)ccn1` [REGORAFENIB] the inhibition in vivo at 100 mg/kg (COLO 205) was 75%, the inhibition in vivo at 3 mg/kg (MDA-MB-231 [37]) was 81% and the inhibition in vivo at 10 mg/kg (786-0) was over 90%.

Compound `C=CC(=O)Nc1cc(Nc2ncc(Cl)c(-c3cnn4ccccc34)n2)c(OC)cc1C(C)CCNC` (configuration not stated) has an IC50 [31] of 0.6 nM, an IC50 (PC-9 [32]) of 2 nM and a GI50 (NCI-H1975 [33]) of 3 nM. For the same compound, the GI50 (PC-9 [34]) was 4 nM, the GI50 (Calu-3) was 180 nM and the solubility [35] was 222 µM (≈ 112 µg/mL). It also gave an IC50 [36] of 6.7 µM.

For `Cc1cccc(Nc2ncnc3ccc(N)cc23)c1`, the IC50 [38] was 50 nM and the IC50 (KB) was 1000 nM.

In the case of `Cn1c(=O)cc(Nc2ccc(I)cc2F)c2c(=O)n(C3CC3)c(=O)n(-c3ccccc3)c21`, the IC50 (ACHN) is reported as 13 nM and the IC50 (HT-29 [2]) is reported as 1.5 nM.

In the case of `C=CC(=O)Nc1cc(Nc2ncc(Cl)c(-c3cnn4ccccc34)n2)c(OC)cc1C1CC(N(C)C)C1` (configuration not stated), the IC50 [31] is reported as 4 nM, the IC50 (PC-9 [32]) is reported as 21 nM and the GI50 (NCI-H1975 [33]) is reported as 17 nM. For the same compound, the GI50 (PC-9 [34]) was 19 nM, the GI50 (Calu-3) was 846 nM and the solubility [35] was 43 µM (≈ 22.3 µg/mL). For the same compound, the IC50 [36] was 4 µM.

In the case of `Cc1ccc(NC(=O)c2cc(C(C)(C)C)on2)cc1C#Cn1cnc2c(NC3CC3)ncnc21`, the IC50 [39] is reported as 359 nM.
